# Source: patent publication EP0610377B1, “TRI-SUBSTITUTED TETRAHYDROFURAN ANTIFUNGALS” (SCHERING CORPORATION, priority 1991, dated 1993)
# Tests used:
# C. albicans C-65 = experiment: Candida systemic model in normal and compromised CF1 mice infected with C. albicans C-65, oral treatment; format: in vivo; details: for CFUs (GM): geometric mean of the logarithms of CFU in the kidneys
# Protocol: The compounds of Examples 23-26 and itraconazole, fluconazole, and saperconazole were tested for in vivo oral antifungal activity in a Candida systemic model using CF1 male mice , average weight 20 g, Harlan Sprague Dawley, Inc., Indianapolis, Ind. infected by IV injection into the tail vein of C. albicans C-43 (5 million CFUs). The drugs were dissolved in polyethylene glycol-200 (PEG-200) and tested by orally administering 50, 25 and 10 mpk of each drug 4 hours post infection and once daily for 3 more days. Oral efficacy was measured after four (4) days by percent survival and by the number of organisms remaining in the kidneys i.e., the Colony Forming Units (CFUs). The mice were sacrificed and the kidneys of individual mice were homogenized in sterile saline, diluted and spread onto Mycosel agar. Colony counts were determined after 48 hours at 37°C. For calculation of geometric means, mice that died during the experiment were considered to have 10^9 CFUs/kidneys (based on numerous previous experiments).
# The compounds of Examples 23-24 and itraconazole, fluconazole, were tested for in vivo oral antifungal anctivity in a Candida systemic model using normal and compromised CF1 mice infected with C. albicans C-65 (5 million CFUs). The procedure of Example 33 was followed. The drugs were dissolved in polyethylene glycol-200 ("PEG-200) at room temperature and tested by orally administering 100, 50, 25, 10 and 1 mpk of each drug. Oral efficacy was measured by percent survival and by the number of organisms remaining in the kidneys (CFUs) after four days. […] The pharmaceutical composition of the preferred compound of formula IIb of Eample 24 in hydroxypropyl beta cyclodextrin ("HPβCD") having 7.4 hydroxypropyl groups per HPβCD (obtained from Pharmatec, Inc., Alachua, FL 32615) was prepared by admixing the appropriate amount of the compound IIa with a 40% (w/v) solution of HPβCD (4 g of HPβCD per 10 mL of purified water). Gentle heating was used to form a clear solution. For the 10 mpk dose, 12 mg of Ha was added to 6 mL of a 40% w/v solution of HPβCD. For dilutions, sterile water was added to the solution with mixing. The pharmaceutical composition of itraconazole and the Pharmatec HPβCD described above was prepared as follows. Propylene glycol (10 mL) was admixed with 0.95 mL of concentrated HCI at 40°-45°C with stirring. Itraconazole (2.5 g) was added thereto and stirring was continued until homogeneous. The mixture so formed was cooled to 20° to 30°C and admixed with a solution of 60 g of HPβCD in 40 mL of purified water to form a clear solution. The pH was adjusted to a value of 1.9-2.1 with 10N NaOH and sufficient purified water added (with mixing) to a final volume of 100 mL. For dilutions, sterile water was added to the itraconazole - HPβCD.
# Candida = Candida vaginal infection in a hamster model; format: in vivo; details: result in words
# [1] = 600 Rads Mice (compromised), 10 MPK PO in PEG-200, 1/day x 4 days, day 4 post-infection
# [2] = 600 Rads Mice (compromised), 10 MPK PO in PEG-200, day 4
# [3] = 600 Rads Mice (compromised), 25 MPK PO in PEG-200, 1/day x 4 days, day 4 post-infection
# [4] = 600 Rads Mice (compromised), 25 MPK PO in PEG-200, day 4
# [5] = 600 Rads Mice (compromised), 50 MPK PO in PEG-200, 1/day x 4 days, day 4 post-infection
# [6] = 600 Rads Mice (compromised), 50 MPK PO in PEG-200, day 4
# [7] = 600 Rads Mice (compromised), 100 MPK PO in PEG-200, 1/day x 4 days, day 4 post-infection
# [8] = 600 Rads Mice (compromised), 100 MPK PO in PEG-200, day 4
# [9] = Normal Mice, 1 MPK PO in PEG-200, 1/day x 4 days, day 4 post-infection
# [10] = Normal Mice, 1 MPK PO in PEG-200, day 4
# [11] = Normal Mice, 10 MPK PO in PEG-200, 1/day x 4 days, day 4 post-infection
# [12] = Normal Mice, 10 MPK PO in PEG-200, day 4
# [13] = Normal Mice, 25 MPK PO in PEG-200, 1/day x 4 days, day 4 post-infection
# [14] = Normal Mice, 25 MPK PO in PEG-200, day 4
# [15] = Normal Mice, 50 MPK PO in PEG-200, 1/day x 4 days, day 4 post-infection
# [16] = Normal Mice, 50 MPK PO in PEG-200, day 4
smiles,measurement,setting,value
CC[C@@H](C)n1ncn(-c2ccc(N3CCN(c4ccc(OC[C@@H]5CO[C@@](Cn6cncn6)(c6ccc(F)cc6F)C5)cc4)CC3)cc2)c1=O [Example 23],% S (Percent Survival),C. albicans C-65; [1],0%
same,CFUs (GM),C. albicans C-65; [2],9.00
same,% S (Percent Survival),C. albicans C-65; [3],20%
same,CFUs (GM),C. albicans C-65; [4],8.65
same,% S (Percent Survival),C. albicans C-65; [5],30%
same,CFUs (GM),C. albicans C-65; [6],7.33
same,% S (Percent Survival),C. albicans C-65; [7],50%
same,CFUs (GM),C. albicans C-65; [8],6.43
same,% S (Percent Survival),C. albicans C-65; [9],0%
same,CFUs (GM),C. albicans C-65; [10],9.00
same,% S (Percent Survival),C. albicans C-65; [11],30%
same,CFUs (GM),C. albicans C-65; [12],7.12
same,% S (Percent Survival),C. albicans C-65; [13],60%
same,CFUs (GM),C. albicans C-65; [14],5.74
same,% S (Percent Survival),C. albicans C-65; [15],90%
same,CFUs (GM),C. albicans C-65; [16],4.69
"CC[C@H](C)n1ncn(-c2ccc(N3CCN(c4ccc(OC[C@@H]5CO[C@@](Cn6cncn6)(c6ccc(F)cc6F)C5)cc4)CC3)cc2)c1=O [Example 24, (-)-[(5R)-cis]-4-[4-[4-[4-[[5-(2,4-Difluorophenyl)-5-(1H-1,2,4-triazol-1-ylmethyl)tetrahydrofuran-3-yl]methoxy]phenyl]-1-piperazinyl]phenyl]-2,4-dihydro-2-[(1S)-(1-methylpropyl)]-3H-1,2,4-triazol-3-one]",activity against a Candida vaginal infection compared with itraconazole and saperconazole,Candida,more active
same,% S (Percent Survival),"C. albicans C-65; 600 Rads Mice (compromised), 10 MPK PO in Beta-CD, 1/day x 4 days, day 4",30%
same,CFUs (GM),"C. albicans C-65; 600 Rads Mice (compromised), 10 MPK PO in Beta-CD, day 4",7.88
same,% S (Percent Survival),C. albicans C-65; [1],0%
same,CFUs (GM),C. albicans C-65; [2],9.00
same,% S (Percent Survival),C. albicans C-65; [3],20%
same,CFUs (GM),C. albicans C-65; [4],8.27
same,% S (Percent Survival),C. albicans C-65; [5],30%
same,CFUs (GM),C. albicans C-65; [6],7.58
same,% S (Percent Survival),C. albicans C-65; [7],80%
same,CFUs (GM),C. albicans C-65; [8],6.28
same,% S (Percent Survival),"C. albicans C-65; Normal Mice, 1 MPK PO in Beta-CD (hydroxypropyl-beta-cyclodextrin), 1/day x 4 days, day 4",70%
same,CFUs (GM),"C. albicans C-65; Normal Mice, 1 MPK PO in Beta-CD, day 4",5.97
same,% S (Percent Survival),C. albicans C-65; [9],30%
same,CFUs (GM),C. albicans C-65; [10],7.73
same,% S (Percent Survival),"C. albicans C-65; Normal Mice, 10 MPK PO in Beta-CD (hydroxypropyl-beta-cyclodextrin), 1/day x 4 days, day 4",100%
same,CFUs (GM),"C. albicans C-65; Normal Mice, 10 MPK PO in Beta-CD, day 4",4.94
same,% S (Percent Survival),C. albicans C-65; [11],40%
same,CFUs (GM),C. albicans C-65; [12],7.48
same,% S (Percent Survival),C. albicans C-65; [13],90%
same,CFUs (GM),C. albicans C-65; [14],4.67
same,% S (Percent Survival),C. albicans C-65; [15],100%
same,CFUs (GM),C. albicans C-65; [16],4.44
same,oral activity in the Candida systemic model compared with itraconazole,"C. albicans C-65; doses of 50 and 25 mpk, each drug dissolved in PEG-200, result in words",more active orally
same,activity against systemic candidiasis compared with itraconazole and saperconazole,"C. albicans C-65; normal and compromised mice, result in words (text refers to Tables II and V)",more active
"CCC(C)n1ncn(-c2ccc(N3CCN(c4ccc(OCC5COC(Cn6cncn6)(c6ccc(Cl)cc6Cl)O5)cc4)CC3)cc2)c1=O (centres unmarked) [Itraconazole, reference compound]",% S (Percent Survival),"C. albicans C-65; 600 Rads Mice (compromised), 10 MPK PO in Beta-CD-H, 1/day x 4 days, day 4",30%
same,CFUs (GM),"C. albicans C-65; 600 Rads Mice (compromised), 10 MPK PO in Beta-CD-H, day 4",8.11
same,% S (Percent Survival),C. albicans C-65; [1],0%
same,CFUs (GM),C. albicans C-65; [2],9.00
same,% S (Percent Survival),"C. albicans C-65; 600 Rads Mice (compromised), 25 MPK PO in Beta-CD-H, 1/day x 4 days, day 4",60%
same,CFUs (GM),"C. albicans C-65; 600 Rads Mice (compromised), 25 MPK PO in Beta-CD-H, day 4",7.98
same,% S (Percent Survival),C. albicans C-65; [3],0%
same,CFUs (GM),C. albicans C-65; [4],9.00
same,% S (Percent Survival),C. albicans C-65; [5],0%
same,CFUs (GM),C. albicans C-65; [6],9.00
same,% S (Percent Survival),C. albicans C-65; [7],20%
same,CFUs (GM),C. albicans C-65; [8],8.45
same,% S (Percent Survival),C. albicans C-65; [9],0%
same,CFUs (GM),C. albicans C-65; [10],900
same,% S (Percent Survival),"C. albicans C-65; Normal Mice, 10 MPK PO in Beta-CD-H (HPβCD vehicle for itraconazole), 1/day x 4 days, day 4",0%
same,CFUs (GM),"C. albicans C-65; Normal Mice, 10 MPK PO in Beta-CD-H, day 4",9.00
same,% S (Percent Survival),C. albicans C-65; [11],30%
same,CFUs (GM),C. albicans C-65; [12],7.64
same,% S (Percent Survival),"C. albicans C-65; Normal Mice, 25 MPK PO in Beta-CD-H (HPβCD vehicle for itraconazole), 1/day x 4 days, day 4",100%
same,CFUs (GM),"C. albicans C-65; Normal Mice, 25 MPK PO in Beta-CD-H, day 4",6.19
same,% S (Percent Survival),C. albicans C-65; [13],50%
same,CFUs (GM),C. albicans C-65; [14],6.93
same,% S (Percent Survival),C. albicans C-65; [15],60%
same,CFUs (GM),C. albicans C-65; [16],5.98
